Assay results from patent US20170253581A1, “SUBSTITUTED HETEROCYCLES AS c-MYC TARGETING AGENTS” (Northwestern University, priority 2016, published 2017).

Target: Myc/Max binding to DNA (Homo sapiens, UniProt P01106)
Assay: Electrophoretic mobility shift assay (EMSA) of Myc/Max binding to DNA
Assay type: biochemical
Conditions: EMSA, 100 uM test compound; read-out: Bound DNA (%) (100uM)
Procedure: We also tested our best hit compound Min9 (NUCC-0176234) and newly synthesized analogs for effects of these compounds on Myc/Max binding to DNA in electrophoretic mobility shift assays (EMSAs). (See FIG. 5a and FIG. 5b). We expected the active compounds to impair Myc/Max binding to DNA. Several strucutural analogs of Min9 were tested over multiple doses for inhibiting Myc-DNA binding and we observed a dose-dependent inhibition. (See FIG. 5c).
Additional compounds were synthesized and tested in the EMSA assay at concentrations of 200 μM, 100 μM, and 50 μM.

Chain of Myc/Max binding to DNA (P01106 whole entry): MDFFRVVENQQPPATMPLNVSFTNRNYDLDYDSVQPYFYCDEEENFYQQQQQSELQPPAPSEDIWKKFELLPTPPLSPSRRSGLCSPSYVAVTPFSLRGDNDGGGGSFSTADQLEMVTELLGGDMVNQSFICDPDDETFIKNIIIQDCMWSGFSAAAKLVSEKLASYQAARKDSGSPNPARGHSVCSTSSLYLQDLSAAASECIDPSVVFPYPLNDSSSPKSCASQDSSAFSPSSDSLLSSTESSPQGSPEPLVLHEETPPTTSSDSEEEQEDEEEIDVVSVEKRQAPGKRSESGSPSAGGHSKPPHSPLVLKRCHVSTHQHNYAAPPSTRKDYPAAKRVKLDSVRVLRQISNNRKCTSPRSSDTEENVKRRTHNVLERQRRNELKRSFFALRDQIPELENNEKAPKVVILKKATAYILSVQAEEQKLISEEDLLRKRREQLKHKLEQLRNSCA

| SMILES | remaining activity at 100 µM [%] |
| --- | --- |
| Oc1cc(OCc2ccc(Cl)cc2)ccc1-c1n[nH]c(C(F)(F)F)c1-c1cc(C(F)(F)F)cc(C(F)(F)F)c1 [compound 0196362] | 33 |
| Oc1cc(OCc2ccc(Cl)cc2)ccc1-c1n[nH]c(C(F)(F)F)c1-c1ccccc1Cl [compound 0196363] | 5 |
| Cn1nc(-c2ccc(OCc3ccc(Cl)cc3)cc2O)c(-c2cccnc2)c1C(F)(F)F [compound 0196364] | 132 |
| Cn1nc(C(F)(F)F)c(-c2cccnc2)c1-c1ccc(OCc2ccc(Cl)cc2)cc1O [compound 0196365] | 98 |
| Oc1cc(OCc2ccc(Cl)cc2)ccc1-c1n[nH]c(C(F)(F)F)c1-c1cccnc1 [compound 0196366] | 79 |
| Oc1cc(OCc2ccc(Cl)cc2)ccc1-c1n[nH]cc1-c1ccccc1 [compound 0198293] | 70 |
| Cn1cc(-c2ccccc2)c(-c2ccc(OCc3ccc(Cl)cc3)cc2O)n1 [compound 0198294] | 97 |
| Oc1cc(OCc2ccc(Cl)cc2)ccc1-c1n[nH]c(C(F)(F)F)c1-c1ccccc1 [compound 0198295] | 0 |
| Cn1nc(C(F)(F)F)c(-c2ccccc2)c1-c1ccc(OCc2ccc(Cl)cc2)cc1O [compound 0198296] | 74 |
| Cn1nc(-c2ccc(OCc3ccc(Cl)cc3)cc2O)c(-c2ccccc2)c1C(F)(F)F [compound 0198297] | 89 |
| Cc1[nH]nc(-c2ccc(OCc3ccc(Cl)cc3)cc2O)c1-c1ccccc1 [compound 0198298] | 88 |
| Cc1nn(C)c(-c2ccc(OCc3ccc(Cl)cc3)cc2O)c1-c1ccccc1 [compound 0198299] | 90 |
| Cc1c(-c2ccccc2)c(-c2ccc(OCc3ccc(Cl)cc3)cc2O)nn1C [compound 0198300] | 94 |
| CCc1[nH]nc(-c2ccc(OCc3ccc(Cl)cc3)cc2O)c1-c1ccccc1 [compound 0198301] | 105 |
| CCc1nn(C)c(-c2ccc(OCc3ccc(Cl)cc3)cc2O)c1-c1ccccc1 [compound 0198302] | 100 |
| CCc1c(-c2ccccc2)c(-c2ccc(OCc3ccc(Cl)cc3)cc2O)nn1C [compound 0198303] | 105 |
| COc1ccc(-c2c[nH]nc2-c2ccc(OCc3ccc(Cl)cc3)cc2O)cc1 [compound 0198304] | 98 |
| COc1ccc(-c2cn(C)nc2-c2ccc(OCc3ccc(Cl)cc3)cc2O)cc1 [compound 0198305] | 106 |
| COc1ccc(-c2c(C)nn(C)c2-c2ccc(OCc3ccc(Cl)cc3)cc2O)cc1 [compound 0198306] | 105 |
| COc1ccc(-c2c(-c3ccc(OCc4ccc(Cl)cc4)cc3O)nn(C)c2C)cc1 [compound 0198307] | 111 |
| COc1cccc(-c2c[nH]nc2-c2ccc(OCc3ccc(Cl)cc3)cc2O)c1 [compound 0198308] | 92 |
| COc1cccc(-c2c(-c3ccc(OCc4ccc(Cl)cc4)cc3O)n[nH]c2C(F)(F)F)c1 [compound 0198309] | 2 |
| COc1cccc(-c2c(C(F)(F)F)nn(C)c2-c2ccc(OCc3ccc(Cl)cc3)cc2O)c1 [compound 0198310] | 86 |
| COc1cccc(-c2c(-c3ccc(OCc4ccc(Cl)cc4)cc3O)nn(C)c2C(F)(F)F)c1 [compound 0198311] | 105 |
| COc1cccc(-c2c(-c3ccc(OCc4ccc(Cl)cc4)cc3O)n[nH]c2C)c1 [compound 0198312] | 104 |
| COc1cccc(-c2c(C)nn(C)c2-c2ccc(OCc3ccc(Cl)cc3)cc2O)c1 [compound 0198313] | 105 |

| SMILES | remaining activity at 100 µM [%] |
| --- | --- |
| COc1cccc(-c2c(-c3ccc(OCc4ccc(Cl)cc4)cc3O)nn(C)c2C)c1 [compound 0198314] | 104 |
| CCc1[nH]nc(-c2ccc(OCc3ccc(Cl)cc3)cc2O)c1-c1cccc(OC)c1 [compound 0198315] | 105 |
| CCc1nn(C)c(-c2ccc(OCc3ccc(Cl)cc3)cc2O)c1-c1cccc(OC)c1 [compound 0198316] | 101 |
| CCc1c(-c2cccc(OC)c2)c(-c2ccc(OCc3ccc(Cl)cc3)cc2O)nn1C [compound 0198317] | 126 |
| Oc1cc(OCc2ccc(Cl)cc2)ccc1-c1n[nH]cc1-c1cc(C(F)(F)F)cc(C(F)(F)F)c1 [compound 0198318] | 32 |
| Cn1cc(-c2cc(C(F)(F)F)cc(C(F)(F)F)c2)c(-c2ccc(OCc3ccc(Cl)cc3)cc2O)n1 [compound 0198319] | 96 |
| Oc1cc(OCc2ccc(Cl)cc2)ccc1-c1n[nH]cc1-c1cccnc1 [compound 0198320] | 52 |
| Cn1cc(-c2cccnc2)c(-c2ccc(OCc3ccc(Cl)cc3)cc2O)n1 [compound 0198321] | 96 |
| Oc1cc(OCc2ccc(Cl)cc2)ccc1-c1n[nH]cc1-c1ccoc1 [compound 0198322] | 28 |
| Cn1ncc(-c2ccoc2)c1-c1ccc(OCc2ccc(Cl)cc2)cc1O [compound 0198323] | 70 |
| Cn1cc(-c2ccoc2)c(-c2ccc(OCc3ccc(Cl)cc3)cc2O)n1 [compound 0198324] | 80 |
| Oc1cc(OCc2ccc(Cl)cc2)ccc1-c1n[nH]c(C(F)(F)F)c1-c1ccoc1 [compound 0198325] | 60 |
| COc1cccc(-c2cn(C)nc2-c2ccc(OCc3ccc(Cl)cc3)cc2O)c1 [compound 0198326] | 106 |
| Cc1cc(C)cc(-c2c[nH]nc2-c2ccc(OCc3ccc(Cl)cc3)cc2O)c1 [compound 0198352] | 56 |
| Cc1cc(C)cc(-c2cn(C)nc2-c2ccc(OCc3ccc(Cl)cc3)cc2O)c1 [compound 0198353] | 104 |
| Cc1cc(C)cc(-c2cnn(C)c2-c2ccc(OCc3ccc(Cl)cc3)cc2O)c1 [compound 0198354] | 85 |
| Cc1ccccc1-c1c[nH]nc1-c1ccc(OCc2ccc(Cl)cc2)cc1O [compound 0198355] | 75 |
| Cc1ccccc1-c1cn(C)nc1-c1ccc(OCc2ccc(Cl)cc2)cc1O [compound 0198356] | 118 |
| COc1ccccc1-c1c[nH]nc1-c1ccc(OCc2ccc(Cl)cc2)cc1O [compound 0198357] | 62 |
| COc1ccccc1-c1cn(C)nc1-c1ccc(OCc2ccc(Cl)cc2)cc1O [compound 0198358] | 93 |
| Cc1cc(C)c(-c2c[nH]nc2-c2ccc(OCc3ccc(Cl)cc3)cc2O)c(C)c1 [compound 0198359] | 35 |
| Cc1cc(C)c(-c2cn(C)nc2-c2ccc(OCc3ccc(Cl)cc3)cc2O)c(C)c1 [compound 0198360] | 101 |
| Cn1cc(-c2c[nH]nc2-c2ccc(OCc3ccc(Cl)cc3)cc2O)cn1 [compound 0198361] | 87 |
| Cn1cc(-c2cn(C)nc2-c2ccc(OCc3ccc(Cl)cc3)cc2O)cn1 [compound 0198362] | 109 |
| N#Cc1ccc(-c2c(-c3ccc(OCc4ccc(Cl)cc4)cc3O)n[nH]c2C(F)(F)F)cc1 [compound 0198391] | 4 |
| Cn1nc(C(F)(F)F)c(-c2ccc(C#N)cc2)c1-c1ccc(OCc2ccc(Cl)cc2)cc1O [compound 0198392] | 54 |
